Values joined by “and” are separate entries in the source; they are usually repeats but may differ in a detail not shown here. Equal values may be shown once. One block for each molecule: values may come before it.
Legend:
[1] = target: T1, ARM domain of HSF2BP (Homo sapiens, UniProt O75031); assay: ITC of BRCA2 fragments with HSF2BP armadillo domain; format: binding; conditions: for n (stoichiometry) / ΔG / −TΔS / ΔH (±error): 293 K; for affinity relative to F0: compared with the affinity measured between ARM and F0
T1 construct: The armadillo domain of HSF2BP, from aa 122 to aa 334; 6xHis-TEV (N, cleaved yes); made in house; host or cells: E. coli BL21 DE3 Rosetta2
T1 sequence (O75031 122-334): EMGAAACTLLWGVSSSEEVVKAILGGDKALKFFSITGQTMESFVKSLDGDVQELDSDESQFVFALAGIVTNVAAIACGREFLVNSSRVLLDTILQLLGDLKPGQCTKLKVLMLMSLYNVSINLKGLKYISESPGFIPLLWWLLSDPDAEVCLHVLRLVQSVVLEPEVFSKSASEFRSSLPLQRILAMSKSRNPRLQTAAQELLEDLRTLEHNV
From the text: Human full-length HSF2BP WT and R200T were expressed using a pETM11 (6xHis-TEV) expression vector in E. coli BL21 DE3 Rosetta2 cells, and purified as previously reported (Brandsma et al., Cell Rep 2019). The armadillo domain of HSF2BP, from aa 122 to aa 334, which we will further name ARM, was similarly expressed using a pETM11 (6xHis-TEV) expression vector in BL21 DE3 Rosetta2 cells and purified as full-length HSF2BP.
Human BRCA2 fragment F0 was expressed using a pET-22b expression vector as a fusion protein comprising BRCA2 from aa 2213 to aa 2342 (including mutation C2332T to avoid oxidation problems), a TEV site, a GB1 and 6xHis tag, in E. coli BL21 DE3 Star cells. The BRCA2 gene was optimized for expression in bacteria and synthesized by Genscript. In addition, smaller BRCA2 fragments were produced using the same strategy: FNMR and F15X corresponding to aa 2252 to aa 2342 and aa 2291 to aa 2343, respectively. The smallest fragment F15X∆12, from aa 2312 to aa 2342, was synthesized by Genecust.
ITC experiments were performed using a high-precision VP-ITC instrument (GE Healthcare) at 293 K. To characterize the interactions between HSF2BP and BRCA2 fragments (WT, variants), the proteins were dialyzed against 25 mM Tris pH 7.5, 250 mM NaCl, 5 mM β-mercaptoethanol. The HSF2BP (or ARM domain) was in the sample cell at 10–20 μM and was titrated by BRCA2 fragments at 40–100 μM, using 10 μL injections with 210 s intervals between each injection. The first 2 μL injection was ignored in the final data analysis. The integration of the peaks corresponding to each injection. the correction for the baseline and the fit were performed using the Origin 7.0 software provided by the manufacturer, to obtain the stoichiometry (N), dissociation constant (Kd), and enthalpy of complex formation (ΔH) for each interaction. Two replicates were performed for each experiment.

[2] = target: T1, ARM domain of HSF2BP; assay: SEC-SAXS of ARM bound to F15X; format: physicochemical
Description: SEC coupled to SAXS is available on the SWING beamline at synchrotron SOLEIL, in order to obtain a distance distribution corresponding to each sample in solution. The free HSF2BP protein as well as the complex between ARM and F15X were analyzed using a Bio SEC-3 column (Agilent) equilibrated in 25 mM Tris-HCl buffer, pH 7.5, 250 mM NaCl, and 5 mM β-mercaptoethanol. The proteins were loaded at a concentration of 6 and 10 mg/ml, in order to observe an elution peak at an OD280nm of 1 and 1.2 AU, respectively.

[3] = target: T1, ARM domain of HSF2BP; assay: SEC-MALS of ARM free or bound to F15X; format: physicochemical
Description: Size-exclusion chromatography (SEC) coupled to MALS was used in order to measure the molecular masses of the complexes in solution. Therefore, HSF2BP and ARM proteins were loaded in the presence and absence of the BRCA2 fragment F15X on a Superdex 200 10/300 GL (GE Healthcare) using a HPLC Shimadzu system coupled to MALS/QELS/UV/RI (Wyatt Technology). The chromatography buffer was 25 mM Tris-HCl buffer, pH 7.5, 250 mM NaCl, 5 mM β-mercaptoethanol. The proteins were injected at 0.8–1 mg/ml in 100 μl. Data were analyzed using the ASTRA software; a calibration was performed with BSA as a standard.

[4] = target: T2, armadillo domain of HSF2BP, from aa 122 to aa 334 (ARM) (human, UniProt O75031 122-334); assay: ITC; HSF2BP or ARM in the cell at 10-20 uM, BRCA2 fragment in the syringe at 40-100 uM; 293 K; 25 mM Tris pH 7.5, 250 mM NaCl, 5 mM beta-mercaptoethanol; two replicates; conditions: both partners purified
T2 construct: Free ARM is a dimer (SEC-MALS); four ARM with two F15X in the complex; A selenomethionine-labelled form was used for the deposited crystal structure; also called HSF2BP ARM; H3 (recombinant); source: E. coli BL21 DE3 Rosetta2, purified (HisTrap, TEV cleavage, SEC)
T2 sequence (looked up): T1 sequence (O75031 122-334)

[5] = target: T3, Human full-length HSF2BP WT (human, UniProt O75031 1-334); assay: as above; conditions: both partners purified
T3 construct: HSF2BP, human, full length, wild type; pETM11 (6xHis-TEV) vector; purified as in Brandsma et al., Cell Rep 2019; also called HSF2BP FL; HFS2BP; source: E. coli BL21 DE3 Rosetta2, purified (HisTrap, TEV cleavage, SEC)
T3 sequence (looked up): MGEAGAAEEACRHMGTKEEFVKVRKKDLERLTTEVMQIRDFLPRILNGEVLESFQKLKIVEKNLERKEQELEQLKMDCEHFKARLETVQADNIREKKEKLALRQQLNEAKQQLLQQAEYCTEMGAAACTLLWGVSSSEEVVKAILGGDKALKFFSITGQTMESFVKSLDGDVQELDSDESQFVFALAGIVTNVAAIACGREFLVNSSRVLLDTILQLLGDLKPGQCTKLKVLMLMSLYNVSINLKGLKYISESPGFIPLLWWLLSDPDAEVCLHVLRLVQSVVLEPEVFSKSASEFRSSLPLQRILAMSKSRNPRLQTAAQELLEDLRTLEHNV

[6] = target: T1, ARM domain of HSF2BP; assay: 2D NMR 1H-15N HSQC of 15N-labeled F0 with ARM; format: binding; conditions: 15N-F0 100 μM, ARM 1:1, 950 MHz, 283 K; peaks of S2252-Q2342
Description: For NMR analysis, ^15N-labeled or ^15N- and ^13C-labeled BRCA2 fragments were produced in E. coli BL21 DE3 Star cells grown in M9 medium containing either 0.5 g/l ^15NH4Cl or 0.5 g/l ^15NH4Cl and 2 g/l ^13C-glucose, respectively. […]
The ^15N/^13C-labeled F0 fragment was analyzed by 3D heteronuclear NMR. in order to assign its Hn, N, Cα, Cβ, and Co chemical shifts, and identify its binding site to HSF2BP. Therefore, 3D NMR HNCA, CBCACONH, HNCACB, HNCANNH, HNCO, and HNCACO experiments were performed on a 700 MHz Bruker AVANCE NEO spectrometer equipped with a triple resonance cryogenic TCI probe at 283 K. The data were processed using Topspin 4.0 (Bruker) and analyzed using CCPNMR 2.4[49]. […] For binding studies, 2D NMR ^1H-^15N HSQC experiments were recorded on a 3-mm-diameter sample tube containing the ^15N-labeled F0 at 100 μM in the absence and presence of the ARM domain at 100 μM, on a 950 MHz Bruker Avance III spectrometer equipped with a triple resonance cryogenic TCI probe at 283 K.

[7] = pH 7.5, expt 1, error in brackets
[8] = pH 7.5, expt 2, error in brackets

n (stoichiometry) ([1]; pH 7.5, expt 1): 0.33
ΔG ([1]; pH 7.5, expt 1): -10.6 kcal/mol
−TΔS ([1]; pH 7.5, expt 1): -0.4 kcal/mol
ΔH (±error) [1, 7]: −10.2 (0.1) kcal/mol
n (stoichiometry) ([1]; pH 7.5, expt 2): 0.40
ΔG ([1]; pH 7.5, expt 2): -10.7 kcal/mol
−TΔS ([1]; pH 7.5, expt 2): -1.5 kcal/mol
ΔH (±error) [1, 8]: −9.2 (0.1) kcal/mol
affinity relative to F0 [1]: about threefold higher
Dmax of complex with ARM [2]: 104 Å
Rg of complex with ARM [2]: 34 Å
molecular weight of complex with ARM ([2]; Bio SEC-3, 25 mM Tris-HCl pH 7.5, 250 mM NaCl, theoretical mass of four ARM bound to two F15X 108 kDa): 109 kDa
oligomeric state of ARM ([3]; SEC-MALS and SEC-SAXS): tetrameric
molecular weight of species in solution ([3]; SEC-MALS, Superdex 200 10/300 GL, 25 mM Tris-HCl pH 7.5, 250 mM NaCl, 5 mM β-mercaptoethanol): 94 kDa
Molecule: CC[C@H](C)[C@H](NC(=O)[C@H](CCCNC(=N)N)NC(=O)[C@H](CC(=O)O)NC(=O)[C@H](Cc1ccccc1)NC(=O)[C@H](CCC(=O)O)NC(=O)[C@@H](N)CC(N)=O)C(=O)N[C@H](C(=O)N[C@@H](CCC(=O)O)C(=O)N[C@@H](CC(N)=O)C(=O)N[C@@H](CCC(N)=O)C(=O)N[C@@H](CCC(=O)O)C(=O)N[C@@H](CCCCN)C(=O)N[C@@H](CO)C(=O)N[C@@H](CC(C)C)C(=O)N[C@@H](CCCCN)C(=O)N[C@@H](C)C(=O)N[C@@H](CO)C(=O)N[C@@H](CCCCN)C(=O)N[C@@H](CO)C(=O)N[C@H](C(=O)N1CCC[C@H]1C(=O)N[C@@H](CC(=O)O)C(=O)NCC(=O)N[C@H](C(=O)N[C@H](C(=O)N[C@@H](CCCCN)C(=O)N[C@@H](CC(=O)O)C(=O)N[C@@H](CCCNC(=N)N)C(=O)N[C@@H](CCCNC(=N)N)C(=O)N[C@@H](CC(C)C)C(=O)N[C@@H](Cc1ccccc1)C(=O)N[C@@H](CCSC)C(=O)N[C@@H](Cc1c[nH]cn1)C(=O)N[C@@H](Cc1c[nH]cn1)C(=O)N[C@H](C(=O)N[C@@H](CO)C(=O)N[C@@H](CC(C)C)C(=O)N[C@@H](CCC(=O)O)C(=O)N1CCC[C@H]1C(=O)N[C@H](C(=O)N[C@H](C(=O)N[C@H](C(=O)N[C@H](C(=O)N1CCC[C@H]1C(=O)N[C@@H](Cc1ccccc1)C(=O)N[C@@H](CCCNC(=N)N)C(=O)N[C@H](C(=O)N[C@H](C(=O)N[C@@H](CCCCN)C(=O)N[C@@H](CCC(=O)O)C(=O)N[C@@H](CCCNC(=N)N)C(=O)N[C@@H](CCC(N)=O)C(=O)N[C@@H](CCC(=O)O)C(=O)O)[C@@H](C)O)[C@@H](C)O)C(C)C)[C@@H](C)O)[C@@H](C)O)[C@@H](C)CC)C(C)C)[C@@H](C)CC)[C@@H](C)O)[C@@H](C)O)[C@@H](C)CC [F15X]

Kd [4]: 31 nM and 25 nM
dH [4]: -8.3 kcal/mol and -11.9 kcal/mol
stoichiometry N [4]: 0.45 and 0.49
Kd [5]: 1.3 nM
dH [5]: -11 kcal/mol and -10.9 kcal/mol
stoichiometry N [5]: 0.43 and 0.47
B1: Human BRCA2 fragment F0 (S2213-Q2342, C2332T) (domain or fragment, UniProt P51587 2213-2342, looked up)
chain: STYSKDSENYFETEAVEIAKAFMEDDELTDSKLPSHATHSLFTCPENEEMVLSNSRIGKRRGEPLILVGEPSIKRNLLNEFDRIIENQEKSLKASKSTPDGTIKDRRLFMHHVSLEPITTVPFRTTKERQ
notes: BRCA2, human, residues 2213-2342 with C2332T; pET-22b fusion: BRCA2 fragment, TEV site, GB1, 6xHis; residues of the TEV site may remain at the C-terminus after cleavage (surmise); 15N- or 15N/13C-labelled for NMR; also called BRCA2-F0; source: E. coli BL21 DE3 Star, purified (HisTrap, TEV cleavage, SEC); not shown: GB1, C-terminal, cleaved; His6, C-terminal, cleaved

ΔG ([1]; pH 7.5, expt 1): -10.8 kcal/mol
−TΔS ([1]; pH 7.5, expt 1): -1.2 kcal/mol
ΔH (±error) [1, 7]: −9.6 (0.1) kcal/mol
ΔG ([1]; pH 7.5, expt 2): -10.5 kcal/mol
−TΔS ([1]; pH 7.5, expt 2): -1.1 kcal/mol
ΔH (±error) [1, 8]: −9.4 (0.2) kcal/mol
affinity relative to F0 [1]: about threefold higher
decrease of HSQC peak intensities [6]: more than 60%
B2: FNMR: BRCA2 fragment aa 2252 to aa 2342, recombinant (protein)
chain: SLFTCPENEEMVLSNSRIGKRRGEPLILVGEPSIKRNLLNEFDRIIENQEKSLKASKSTPDGTIKDRRLFMHHVSLEPITTVPFRTTKERQ
modifications: left off: GB1, C-terminal, cleaved | His6, C-terminal, cleaved
notes: BRCA2 fragment aa 2252 to aa 2342, recombinant
